Key:
Assay in all cases: relative viability (nuclei count vs DMSO), 5 days (fraction); higher = more cells survive
A-427 = system: A-427
Procedure, shortened: (§1)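 Relative viability equals treated-well nuclei counts divided by vehicle-well nuclei counts. Counts came from 4× images of lung cancer cell lines grown in 1536-well plates for 5 days after pin-tool dosing on the day after seeding. Dosing used one drug alone or a fixed anchor-drug dose plus five library-drug doses (not always all listed) in √10 steps, and values are medians of duplicate plates.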

COR-L 105 = system: COR-L 105
Procedure, shortened: as §1

EPLC-272H = system: EPLC-272H
Procedure, shortened: as §1

HCC-366 = system: HCC-366
Procedure, shortened: as §1

HCC-78 = system: HCC-78
Procedure, shortened: as §1

HOP-62 = system: HOP-62
Procedure, shortened: as §1

LC-2-ad = system: LC-2-ad
Procedure, shortened: as §1

LCLC-97TM1 = system: LCLC-97TM1
Procedure, shortened: as §1

LU99A = system: LU99A
Procedure, shortened: as §1

LXF-289 = system: LXF-289
Procedure, shortened: as §1

NCI-H1755 = system: NCI-H1755
Procedure, shortened: as §1

NCI-H1792 = system: NCI-H1792
Procedure, shortened: as §1

NCI-H1915 = system: NCI-H1915
Procedure, shortened: as §1

NCI-H1944 = system: NCI-H1944
Procedure, shortened: as §1

NCI-H1975 = system: NCI-H1975
Procedure, shortened: as §1

NCI-H2085 = system: NCI-H2085
Procedure, shortened: as §1

NCI-H2170 = system: NCI-H2170
Procedure, shortened: as §1

NCI-H358 = system: NCI-H358
Procedure, shortened: as §1

NCI-H460 = system: NCI-H460
Procedure, shortened: as §1

SK-LU-1 = system: SK-LU-1
Procedure, shortened: as §1

UMC-11 = system: UMC-11
Procedure, shortened: as §1

With `C=C1C(=O)O[C@@H](CCCCCCCC)[C@@H]1C(=O)O` [C-75] + C[C@@H](Oc1cc(-c2cnn(C3CCNCC3)c2)cnc1N)c1c(Cl)ccc(F)c1Cl [Crizotinib] (partner 1 µM) the relative viability (A-427; first compound 0.08 µM) was 0.929, the relative viability (A-427; first compound 0.253 µM) was 1.11 and the relative viability (A-427; first compound 0.8 µM) was 0.883. It also gave a relative viability (A-427; first compound 2.53 µM) of 0.69, a relative viability (A-427; first compound 8 µM) of 0.898 and a relative viability (COR-L 105; first compound 0.08 µM) of 0.707. It also gave a relative viability (COR-L 105; first compound 0.253 µM) of 0.808, a relative viability (COR-L 105; first compound 0.8 µM) of 0.949 and a relative viability (COR-L 105; first compound 2.53 µM) of 0.921. For the same compound, the relative viability (COR-L 105; first compound 8 µM) was 0.566, the relative viability (EPLC-272H; first compound 0.08 µM) was 0.86 and the relative viability (EPLC-272H; first compound 0.253 µM) was 0.994. It also gave a relative viability (EPLC-272H; first compound 0.8 µM) of 0.824, a relative viability (EPLC-272H; first compound 2.53 µM) of 0.672 and a relative viability (EPLC-272H; first compound 8 µM) of 0.658. For the same compound, the relative viability (HCC-366; first compound 0.08 µM) was 0.508, the relative viability (HCC-366; first compound 0.253 µM) was 0.76 and the relative viability (HCC-366; first compound 0.8 µM) was 0.5. For the same compound, the relative viability (HCC-366; first compound 8 µM) was 0.509, the relative viability (HCC-78; first compound 0.08 µM) was 0.358 and the relative viability (HCC-78; first compound 0.253 µM) was 0.338. The relative viability (HCC-78; first compound 0.8 µM) was 0.36, the relative viability (HCC-78; first compound 2.53 µM) was 0.308 and the relative viability (HCC-78; first compound 8 µM) was 0.4. It also gave a relative viability (HOP-62; first compound 0.08 µM) of 0.99, a relative viability (HOP-62; first compound 0.253 µM) of 0.849 and a relative viability (HOP-62; first compound 0.8 µM) of 0.81. It also gave a relative viability (HOP-62; first compound 2.53 µM) of 0.824, a relative viability (HOP-62; first compound 8 µM) of 1 and a relative viability (LC-2-ad; first compound 0.08 µM) of 0.467. The relative viability (LC-2-ad; first compound 0.253 µM) was 0.467, the relative viability (LC-2-ad; first compound 0.8 µM) was 0.369 and the relative viability (LC-2-ad; first compound 2.53 µM) was 0.446. The relative viability (LC-2-ad; first compound 8 µM) was 0.42, the relative viability (LCLC-97TM1; first compound 0.08 µM) was 0.274 and the relative viability (LCLC-97TM1; first compound 0.253 µM) was 0.461. The relative viability (LCLC-97TM1; first compound 0.8 µM) was 0.328, the relative viability (LCLC-97TM1; first compound 2.53 µM) was 0.253 and the relative viability (LCLC-97TM1; first compound 8 µM) was 0.29. The relative viability (LU99A; first compound 0.08 µM) was 0.538, the relative viability (LU99A; first compound 0.253 µM) was 0.616 and the relative viability (LU99A; first compound 0.8 µM) was 0.49. It also gave a relative viability (LU99A; first compound 2.53 µM) of 0.395, a relative viability (LU99A; first compound 8 µM) of 0.398 and a relative viability (LXF-289; first compound 0.08 µM) of 0.795. The relative viability (LXF-289; first compound 0.253 µM) was 0.793, the relative viability (LXF-289; first compound 0.8 µM) was 0.812 and the relative viability (LXF-289; first compound 2.53 µM) was 0.739. It also gave a relative viability (LXF-289; first compound 8 µM) of 0.806, a relative viability (NCI-H1755; first compound 0.08 µM) of 0.87 and a relative viability (NCI-H1755; first compound 0.253 µM) of 0.853. The relative viability (NCI-H1755; first compound 0.8 µM) was 0.836, the relative viability (NCI-H1755; first compound 2.53 µM) was 0.541 and the relative viability (NCI-H1755; first compound 8 µM) was 0.824. The relative viability (NCI-H1792; first compound 0.08 µM) was 1.01, the relative viability (NCI-H1792; first compound 0.253 µM) was 0.918 and the relative viability (NCI-H1792; first compound 0.8 µM) was 0.919. For the same compound, the relative viability (NCI-H1792; first compound 2.53 µM) was 0.857, the relative viability (NCI-H1792; first compound 8 µM) was 0.879 and the relative viability (NCI-H1915; first compound 0.08 µM) was 0.924. For the same compound, the relative viability (NCI-H1915; first compound 0.253 µM) was 0.914, the relative viability (NCI-H1915; first compound 0.8 µM) was 0.879 and the relative viability (NCI-H1915; first compound 2.53 µM) was 0.819. For the same compound, the relative viability (NCI-H1915; first compound 8 µM) was 0.804, the relative viability (NCI-H1944; first compound 0.08 µM) was 1.06 and the relative viability (NCI-H1944; first compound 0.253 µM) was 0.998. The relative viability (NCI-H1944; first compound 0.8 µM) was 1.05, the relative viability (NCI-H1944; first compound 8 µM) was 1.03 and the relative viability (NCI-H1975; first compound 0.08 µM) was 0.987. It also gave a relative viability (NCI-H1975; first compound 0.253 µM) of 0.929, a relative viability (NCI-H1975; first compound 0.8 µM) of 0.908 and a relative viability (NCI-H1975; first compound 2.53 µM) of 0.773. For the same compound, the relative viability (NCI-H1975; first compound 8 µM) was 0.935, the relative viability (NCI-H2085; first compound 0.08 µM) was 0.739 and the relative viability (NCI-H2085; first compound 0.253 µM) was 0.803. The relative viability (NCI-H2085; first compound 0.8 µM) was 0.878, the relative viability (NCI-H2085; first compound 2.53 µM) was 0.656 and the relative viability (NCI-H2085; first compound 8 µM) was 0.878. It also gave a relative viability (NCI-H2170; first compound 0.08 µM) of 1.25, a relative viability (NCI-H2170; first compound 0.253 µM) of 1.28 and a relative viability (NCI-H2170; first compound 0.8 µM) of 1.23. It also gave a relative viability (NCI-H2170; first compound 2.53 µM) of 1.07, a relative viability (NCI-H2170; first compound 8 µM) of 1.24 and a relative viability (NCI-H358; first compound 0.08 µM) of 0.63. For the same compound, the relative viability (NCI-H358; first compound 0.253 µM) was 0.696, the relative viability (NCI-H358; first compound 0.8 µM) was 0.59 and the relative viability (NCI-H358; first compound 2.53 µM) was 0.565. For the same compound, the relative viability (NCI-H358; first compound 8 µM) was 0.618, the relative viability (NCI-H460; first compound 0.08 µM) was 0.88 and the relative viability (NCI-H460; first compound 0.253 µM) was 1.07. It also gave a relative viability (NCI-H460; first compound 0.8 µM) of 0.696, a relative viability (NCI-H460; first compound 8 µM) of 0.696 and a relative viability (SK-LU-1; first compound 0.08 µM) of 0.801. It also gave a relative viability (SK-LU-1; first compound 0.253 µM) of 0.987, a relative viability (SK-LU-1; first compound 0.8 µM) of 0.883 and a relative viability (SK-LU-1; first compound 2.53 µM) of 0.907. The relative viability (SK-LU-1; first compound 8 µM) was 0.655, the relative viability (UMC-11; first compound 0.08 µM) was 0.688 and the relative viability (UMC-11; first compound 0.253 µM) was 0.625. For the same compound, the relative viability (UMC-11; first compound 0.8 µM) was 0.651, the relative viability (UMC-11; first compound 2.53 µM) was 0.497 and the relative viability (UMC-11; first compound 8 µM) was 0.461.
